As a reminder, the melting point is the temperature, or range, at which the solid turns liquid.

The compound `Cn1cc(-c2cccc(N3Cc4cc(C(C)(C)C)ccc4C3=O)c2CO)nc(Nc2ccc(N3CCOCC3)cc2)c1=O` showed a melting point of 225 to 227 °C.

In turn, `COC(=O)C1CCN(c2ccc3nc4[nH]c(=O)[nH]c4cc3c2)CC1` yielded a melting point above 310 °C.

For the compound `CC(C)CNCc1cc2cc(NC(=O)c3ccc(C#CC4(O)CC4)cc3)ccc2n1C`, the melting point fell in the range of 172 to 174 °C.

In turn, `CC1(S(=O)(=O)C2(C)C=CC=CC2O)C=CC=CC1O` (stereo not drawn) had a melting point of 95 to 97 °C.

For the compound `COc1cc(C(=O)Nc2c(Cl)cc3cn[nH]c3c2C(=O)NC2(C)CSC2)n(-c2ncccc2Cl)n1`, the melting point is 162 to 165 °C.

`OCc1ccc(Cn2c(CC3CCN(CCNc4ccc(Cl)nn4)CC3)nc3ccccc32)o1` had a melting point of 188 °C.

Compound `Cn1cc(CO)c(=O)c2cc(F)ccc21` showed a melting point of 209 to 212 °C.

`O=c1[nH]c2ccccc2n1C1=CCN(C2CCC(c3ccc(F)cc3)(c3ccc(F)cc3)CC2)CC1` yielded a melting point of 235 to 238 °C.

`Cc1cc(C)c(Nc2nc(C)ccc2S(=O)(=O)c2ccc(OCCCC#N)cc2)c(C)c1` showed a melting point of 160 to 162 °C.

As to `CN(C)C1(c2ccccc2)CC=C(c2c[nH]c3ccccc23)CC1` (stereo not drawn), the melting point lay in the range of 164 to 172 °C.

In turn, `CC1=C(CC(NC(=O)c2ccc(Cl)cc2)NC(=N[N+](=O)[O-])Nc2cccnc2)C(C)(C)CCC1` (stereo not drawn) displayed a melting point of 217 to 218 °C.

As for `CCn1cc(CN(C(=O)C2CCCc3ccc(C)cc32)c2ccc(C(C)C)cc2)cn1` (stereo not drawn), the melting point lay in the range of 110 to 112 °C.

`O=C1Nc2cccc(Br)c2C(=O)N2CCC[C@@H]12`: the melting point is 221 to 224 °C.

`CC(C)(C)OC(=O)NC1CCN(C2CCN(Cc3ccccc3)CC2)C1` (stereo not drawn) displayed a melting point of 118 °C.

The compound `CC(C)(C)c1cc(C(c2ccc(C#N)cc2)N2CCCCC2)cc(C(C)(C)C)c1O` (stereo not drawn) registered a melting point of 139 to 140 °C.

The compound `Nc1ccc(Sc2ncccn2)cc1` yielded a melting point of 124 to 126 °C.

In turn, `Cc1c(NC(=O)C(CSC(=O)C(C)(C)C)Cc2ccccc2)cccc1C(=O)O` (stereo not drawn) showed a melting point of 117 to 120 °C.

On to `Nc1ccc(-n2cc(C(=O)O)c(=O)cc2-c2ccc3ccccc3c2)cc1`, for which the melting point was 148 to 151 °C.

On to `O=C(O)COc1cc2c(c(Cl)c1Cl)C(=O)C(Cl)(C1CCCCC1)C2` (stereo not drawn), for which the melting point was 142 to 145 °C.

Regarding `CC(C)CN(CC(O)C(Cc1ccccc1)NC(=O)C(CC(N)=O)NC(=O)NCc1ccccc1)C(=O)NC(C)(C)C` (stereo not drawn), the melting point fell in the range of 164 to 166 °C.

`O=C1CCC2=C1C(c1cccc(Br)c1)C1=C(CCS1)N2` (stereo not drawn): the melting point turned out to be 246 °C.

The compound `C=CCc1cc2c(c(CC=C)c1O)CCC(=O)N2CCCNC(N)=O` displayed a melting point of 203 to 204 °C.

Regarding `CCOC(=O)c1ccc(Cc2ccc3c(c2)OCO3)o1`, the melting point was 67 to 68 °C.

The compound `O=C(O)c1c(Br)c(Br)c([N+](=O)[O-])c2c1OCCO2` had a melting point of 238 °C.

Consider `O=C(c1ccccc1)c1cc(Oc2cc(Cl)cc(Cl)c2)c2c(=O)c3ccccc3sc2c1`, for which the melting point was 160 to 163 °C.

`Cc1ccc(C(=O)c2cc(C(C)(C)C)c(O)c(C(C)(C)C)c2)c(Cl)n1`: the melting point is 116 to 117 °C.

Take `Cc1nn(C)c(=O)n1-c1ccccc1COc1ccn(-c2ccc(Cl)cc2)n1`: the melting point lay in the range of 107 to 108 °C.

As to `COc1cc(-c2nc3cc(F)ccc3s2)ccc1OC(=O)c1cccc([N+](=O)[O-])c1`, the melting point was 190 °C.

The compound `CC(=O)Nc1nc(-c2ccc([N+](=O)[O-])cc2)c[nH]1` registered a melting point of 242 to 244 °C.

`Oc1ccc(-c2ccc3ccc(O)cc3c2)cc1` showed a melting point of 210 °C.

`CNS(=O)(=O)/C=C/c1cc(Cl)cnc1N`: the melting point was in the range of 194 to 198 °C.

For the compound `COc1ccc2ccc(O)c(C=O)c2c1`, the melting point was determined as 126 °C.

As for `CCCCCCCCCCCCc1ccc2nc3c(c(Cl)c2c1)CCCC3`, the melting point lay within 36 to 38 °C.

`Cc1ccc2c(-c3cccc(O)c3)nc(=O)n(C(C)C)c2c1` had a melting point of 270 to 272 °C.

For the compound `COc1ccc(NC(C)c2oc3ccc(F)cc3c(=O)c2-c2cccc(F)c2)cc1` (stereo not drawn), the melting point fell in the range of 152 to 156 °C.

Regarding `CCn1c(C)c(C2(N(c3ccccc3)c3ccccc3C(=O)OC)OC(=O)c3ccccc32)c2ccccc21` (stereo not drawn), the melting point was 80 to 115 °C.

With `C=C(C)Cn1ncc(Cl)c(Cl)c1=O`, the melting point lay in the range of 52 to 54 °C.

`Cn1cc(-c2cc3nccnc3[nH]2)c2cc(C(=O)NC(C)(C)CO)ccc21`: the melting point was 210 to 214 °C.

As for `O=C(c1ccc(Cl)cc1)n1cc(CCN=c2sc3ccccc3s2)c2ccccc21`, the melting point was 135 °C.

`CCOC(=O)C(OC)C(=O)Nc1ccc(Br)cc1C` (stereo not drawn) yielded a melting point of 93 to 95 °C.

Consider `CCOC(=O)C=Cc1ccc([N+](=O)[O-])c(C)c1`, for which the melting point was 90 to 92 °C.

The compound `CSC1NC(=O)N(C(C)C)C(=O)N1N=C(C)C` (stereo not drawn) displayed a melting point of 110 to 112 °C.

Take `O=C(Cc1ccccc1)N[C@@H]1C(=O)N2C(C(=O)O)=C(OS(=O)(=O)C(F)(F)F)NC[C@H]12` (racemic): the melting point lay within 100 to 102 °C.

With `CNC(Cc1ccccc1NC(=O)C(C)(C)C)c1ccccc1` (stereo not drawn), the melting point lay in the range of 85 to 86 °C.

For the compound `CCCc1[nH]c2cc(C(N)=O)ccc2c1C(=O)C1CCCCC1`, the melting point was 245 to 247 °C.

The compound `CCOCCOc1cccc2oc(-c3ccccc3)cc(=O)c12` came in with a melting point of 94 to 96 °C.

The compound `Cc1cccc2c1nc(COc1ccc(Cl)cc1)n2CCC(Cc1ccccc1)C(=O)O` (stereo not drawn) displayed a melting point of 190 to 192 °C.

For `N#Cc1cc(Cl)nc(SCc2ccc3ccccc3c2)n1`, the melting point is 120 to 121 °C.

`CCCC(=N)Nc1ccccc1N1CCOCC1` yielded a melting point of 131 °C.

`Cn1c(=O)c(-c2ccc(Cl)cc2Cl)cc2c3cc(-c4nnc(N)s4)ccc3n(C)c21` had a melting point of 321 to 323 °C.

As to `COc1ccc(C(=O)[C@H]2CCCC[C@H]2C(=O)O)cc1OC1CCCC1` (relative stereo), the melting point lay within 120 to 121 °C.

Regarding `O=Cc1cc2c(cc1O)CCO2`, the melting point was 102 to 104 °C.

In turn, `Oc1nc2ccc3nccnc3c2nc1O` gave a melting point above 300 °C.

`O=C(CCl)NCc1c(O)c(I)cc2c1CCCC2`: the melting point was in the range of 119 to 125 °C.

`Cc1cc(=O)n(C)c(=O)n1C`: the melting point lay in the range of 113 to 114 °C.

`CC(C)(C)c1cc(-c2csc(CNC(=O)c3ccccc3)n2)cc(C(C)(C)C)c1O` showed a melting point of 200 to 201 °C.

`COc1cccc(-n2nc(C)c3ccc([N+](=O)[O-])cc32)c1C#N` registered a melting point of 244 °C.

With `COc1ccccc1Nc1ncc(C(=O)O)c(=O)[nH]1`, the melting point is 251 to 253 °C.

For the compound `CC12CCC(=O)NC1CCc1cc(-c3cnc4ccccc4c3)ccc12` (single isomer, unassigned; (+)), the melting point fell in the range of 265 to 266 °C.

In turn, `CCCOCCOc1ccccc1COc1ccc2c(c1)C=C(C(=O)Nc1ccc(CN(C)C3CCOCC3)cc1)CCS2(=O)=O` came in with a melting point of 136 to 138 °C.

Regarding `c1ccc(C2Cn3c(nc4cc5ccccc5cc43)S2)nc1` (stereo not drawn), the melting point came out at 198 °C.

As for `CNc1cc2c(c(C)c1F)c(=O)c(C(=O)O)cn2-c1cc(N)c(F)cc1F`, the melting point was above 270 °C.

`CCCc1nc2c(N)nc3cc(-c4cccc(C(=O)N5CCCC5)c4)ccc3c2s1` showed a melting point of 177 to 180 °C.

As for `CC(=O)c1ccc(OC(C)(C)C(=O)O)c(Cl)c1`, the melting point lay within 123 to 125 °C.

With `CCCCCCCCCCCCCCCCCCOC(=O)c1ccc(Cn2c(=S)sc3ccccc32)cc1`, the melting point is 105 to 107 °C.

Take `CCNc1c(C(=O)OCC)c(C)nc2scnc12`: the melting point was in the range of 53 to 54 °C.

The compound `CCOC(=O)c1cnc2ccc3nc(Cl)sc3c2c1Cl` showed a melting point of 143 to 146 °C.

With `CCN(CC)C(=O)Cc1ccc(NC(=O)/C=C/c2cnn(C)c2-c2ccc(F)cc2)cc1`, the melting point lay in the range of 175 to 176 °C.

For the compound `O=C(Nc1cccc(Cl)c1)NN1CC=CCC1`, the melting point lay within 146 to 147 °C.

`O=C1C(c2ccccc2)=C(c2ccc(Cl)cc2)C(=O)N1c1ccc(Cl)cc1`: the melting point came to 157 °C.

Regarding `COC(=O)c1cc2ccc(Cl)c(Cl)c2o1`, the melting point is 162 °C.

The compound `CSC(=S)NCc1c[nH]c2ccccc12` yielded a melting point of 132 to 133 °C.

Take `O=C1CCC2(CCCc3ccccc32)CC1`: the melting point is 109 to 111 °C.

In turn, `CC(C)c1ccc(C(=O)C2=C(O)C(=O)N(c3ccc(Sc4ccc([N+](=O)[O-])cc4)nn3)C2c2ccc(OC(F)(F)F)cc2)cc1` (stereo not drawn) displayed a melting point of 194 to 209 °C.

With `O=C1CC2CCSc3ccccc3C2=NN1c1ccccc1` (stereo not drawn), the melting point fell in the range of 138 to 140 °C.

Compound `CCC(O)(c1ccccc1)c1cccc(N)c1` (stereo not drawn) returned a melting point of 92 to 93 °C.

On to `Cc1cn2cc(Cl)ccc2n1`, for which the melting point was in the range of 94 to 96 °C.

Compound `CC1(C)CCC(C)(C)c2cc3cc(-c4cc(C(=O)O)cs4)ccc3cc21` registered a melting point of 223 to 225 °C.

`COc1ccc(NC(=N)N2CCCCC2)c(-c2ccccc2)c1`: the melting point came to 155 °C.

`Cc1nc(CCn2cnc3c2c(=O)[nH]c(=O)n3C)no1` showed a melting point of 258 to 260 °C.

On to `COc1cc2c(c(Cl)c1Cl)C(=O)C(C)(c1ccc(Cl)cc1)C2` (stereo not drawn), for which the melting point lay in the range of 176 to 178 °C.

Take `CCOC(=O)c1ccc2oc(CN3CCN(c4ccc(Cl)nn4)CC3)nc2c1`: the melting point amounted to 140 °C.

`c1csc(-c2nc3cc(COc4ccc(CCCCn5ccnc5)cc4)ccc3o2)c1` came in with a melting point of 130 to 131 °C.

For the compound `COC(=O)C(C)n1nnc2ccc(O)cc21` (stereo not drawn), the melting point lay within 132 to 134 °C.

`O=C(NC(Cc1ccccc1)C(=O)O)OCc1cc2cc(-c3cncnc3)ccc2o1` (stereo not drawn) gave a melting point of 192 °C.

`COc1cccc(-c2nn(-c3ccccc3)c(-c3cccc(OC)c3)c2CC(=O)O)c1` registered a melting point of 129 to 131 °C.

As to `CCOc1c(NCc2ccc(Br)cc2CC)c(=O)c1=O`, the melting point lay in the range of 217 to 224 °C.

For `CCOC(=O)C(C(=O)O)=C1SCS1`, the melting point lay within 166 to 167 °C.

The values above are taken from a melting point compilation (Tetko et al.; mined from patent text by program, amines drawn as free bases though some values may be those of a salt).
